From article PMC6792352, “Limited Chemical Structural Diversity Found to Modulate Thyroid Hormone Receptor in the Tox21 Chemical Library” (Environmental Health Perspectives, 2019) come the findings set out here.

Structures can show the parent of a compound that is named as a salt.

The first data set is described as follows: in vitro. The following applies: rat, gh3-tre-luc cells, AC50 (uM) modified / 1000.
As for `C[C@H](Cc1ccc(O)c(O)c1)[C@@H](C)Cc1ccc(O)c(O)c1` [Nordihydroguaiaretic acid], the cytotoxic concentration (CC50) (commonly the concentration that lowers cell viability or growth by half) at 24 h is 8.42 µM.
Compound `C#C[C@]1(O)CC[C@H]2[C@@H]3CCC4=CC(=NO)CC[C@@H]4[C@H]3CC[C@@]21CC` [Norelgestromin] returned a cytotoxic concentration (CC50) at 24 h of 35.1 µM.
The same measure, in the same setting: as for `NC[C@H](O)c1ccc(O)c(O)c1` [Norepinephrine], the figure is 57.7 µM.
The same measure, in the same setting: as for `C#C[C@]1(OC(C)=O)CC[C@H]2[C@@H]3CCC4=CC(=O)CC[C@@H]4[C@H]3CC[C@@]21C` [Norethindrone acetate], the figure is more than 50 µM; as for `C#C[C@]1(O)CC[C@H]2[C@@H]3CCC4=CC(=O)CC[C@@H]4[C@H]3CC[C@@]21C` [Norethindrone], 59.2 µM; as for `C#C[C@]1(O)CC[C@H]2[C@@H]3CCC4=C(CCC(=O)C4)[C@H]3CC[C@@]21C` [Norethynodrel], more than 20 µM.
For `O=C1NC(=O)[C@H]2[C@@H]1[C@@H]1C=C[C@H]2C1` [Noreximide], the CC50 at 24 h was more than 50 µM.
On the same count and under the same terms, then `NCC(O)c1cccc(O)c1` (centres unmarked) [Norfenefrine hydrochloride], with more than 50 µM; and `CNc1cnn(-c2cccc(C(F)(F)F)c2)c(=O)c1Cl` [Norflurazon], with more than 90 µM; and `c1ccc2c(c1)[nH]c1cnccc12` [Norharman], with more than 90 µM.
In turn, `C#C[C@]1(OC(=O)CCCCCC)CC[C@H]2[C@@H]3CCC4=CC(=O)CC[C@@H]4[C@H]3CC[C@@]21C` [Noristerat] showed a CC50 at 24 h of 10.7 µM.
`Oc1ccccc1/C=N/Cc1ccccc1` [Norletimol] gave a 50% cytotoxic concentration (CC50) at 24 h of more than 50 µM.
On the same count and under the same terms, as for `NCCCNCCCN` [Norspermidine], the figure is 57.5 µM; as for `CNCCC=C1c2ccccc2CCc2ccccc21` [Nortriptyline hydrochloride], 12.6 µM; as for `COc1ccc2c(c1OC)C(=O)O[C@@H]2[C@H]1c2c(cc3c(c2OC)OCO3)CCN1C` [Noscapine], 15 µM.
Still for that read-out and setting: then `O=C(NC(=O)c1c(F)cccc1F)Nc1ccc(OC(F)(F)C(F)OC(F)(F)F)c(Cl)c1` (centres unmarked) [Novaluron], with more than 50 µM; and `CO[C@@H]1[C@@H](OC(N)=O)[C@@H](O)[C@H](Oc2ccc3c(O)c(NC(=O)c4ccc(O)c(CC=C(C)C)c4)c(=O)oc3c2C)OC1(C)C` [Novobiocin sodium], with more than 20 µM.
The same measure, in the same setting: as for `OC(c1ccc(F)cc1)(c1cncnc1)c1ccccc1Cl` (centres unmarked) [Nuarimol], the figure is more than 90 µM; as for `O=C1N=C2SCCN2C(=O)C1Cc1ccc(Cl)cc1` (centres unmarked) [Nuclomedone], more than 50 µM.
`CC(CCc1ccccc1)NC(C)C(O)c1ccc(O)cc1` (centres unmarked) [Nylidrin] displayed a cytotoxic concentration (CC50) at 24 h of 41.8 µM.
The compound `C[C@@H]1[C@H](O)[C@@H](C)/C=C/C=C/CC/C=C/C=C/C=C/C=C/[C@H](O[C@@H]2O[C@H](C)[C@@H](O)[C@H](N)[C@@H]2O)C[C@@H]2O[C@](O)(C[C@@H](O)[C@H](O)CC[C@@H](O)C[C@@H](O)C[C@@H](O)CC(=O)O[C@H]1C)C[C@H](O)[C@H]2C(=O)O` [Nystatin] displayed a 50% cytotoxic concentration (CC50) at 24 h of more than 50 µM.
Still for that read-out and setting: then `COc1nc(N)nc2nc[nH]c12` [O6-Methylguanine], with more than 90 µM.
For the compound `CC1CC(=O)NN=C1c1ccc(NCC(C)(C)NCC(O)COc2cc(Cl)ccc2C#N)cc1` (centres unmarked) [Oberadilol], the CC50 at 24 h was more than 50 µM.
Same read-out and setting: as for `CCCCCCCCOc1ccc(C(=O)c2ccccc2)c(O)c1` [Octabenzone], the figure is more than 90 µM; as for `Brc1cc(Oc2cc(Br)c(Br)c(Br)c2Br)c(Br)c(Br)c1Br` [Octabromodiphenyl ether], more than 90 µM.
Same read-out and setting: as for `CCCCCCCCCCCCCCCCCC#N` [Octadecanenitrile], the figure is more than 90 µM; as for `CCCCCCCCCCCCCCCCCC(=O)OCC(C)O` (centres unmarked) [Octadecanoic acid, monoester with 1,2-propanediol], 20.7 µM.
The same measure, in the same setting: as for `CCCCCCCCCCCCCCCCCCCl` [Octadecyl chloride], the figure is more than 5 µM; as for `CCCCCCCCCCCCCCCCCCOS(=O)(=O)O` [Octadecyl sulfate sodium salt], 53.1 µM.
In the case of `C=CC(=O)OCC1CC2CC1C1CCC(COC(=O)C=C)C21` (centres unmarked) [Octahydro-1H-4,7-methanoindene-1,5-diyldimethanediyl bisprop-2-enoate], the half-maximal cytotoxic concentration (CC50) at 24 h worked out at 75.1 µM.
In turn, `C1C[C@@H]2[C@H]3CC[C@H](C3)[C@@H]2C1` [Octahydro-exo-4,7-methano-1H-indene] had a CC50 at 24 h of more than 90 µM.
In turn, `C[Si]1(C)O[Si](C)(C)O[Si](C)(C)O[Si](C)(C)O1` [Octamethylcyclotetrasiloxane] had a 50% cytotoxic concentration (CC50) at 24 h of more than 90 µM.
As to `C[Si](C)(C)O[Si](C)(C)O[Si](C)(C)C` [Octamethyltrisiloxane], the cytotoxic concentration (CC50) at 24 h is more than 90 µM.
Take `CCCCCCCC=O` [Octanal]: the cytotoxic concentration (CC50) at 24 h is more than 90 µM.
`CCCCCCCC` [Octane]: the 50% cytotoxic concentration (CC50) at 24 h is more than 90 µM.
`O=C(O)CCCCCCC(=O)O` [Octanedioic acid] yielded a half-maximal cytotoxic concentration (CC50) at 24 h of more than 90 µM.
Same read-out and setting: then `CCCCCCCC#N` [Octanenitrile], with more than 90 µM.
`CCCCCCCC(=O)O` [Octanoic acid] showed a CC50 at 24 h of more than 90 µM.
Same read-out and setting: as for `CCOc1cc(-c2nccc3cc(OC)c(OC)cc23)cc(OCC)c1OCC` [Octaverine], the figure is 28.2 µM; as for `CCCC[C@H](CC)COC(=O)/C=C/c1ccc(OC)cc1` [Octinoxate], more than 90 µM.
The same measure, in the same setting: then `CN1CCN(C2Cc3ccccc3Sc3ccc(Cl)cc32)CC1` (centres unmarked) [Octoclothepine maleate], with 7.55 µM; and `NCC(O)c1ccc(O)cc1` (centres unmarked) [Octopamine hydrochloride], with more than 90 µM.
As for `C[C@@H](O)[C@@H]1NC(=O)[C@H](CCCCN)NC(=O)[C@@H](Cc2c[nH]c3ccccc23)NC(=O)[C@H](Cc2ccccc2)NC(=O)[C@@H](NC(=O)[C@H](N)Cc2ccccc2)CSSC[C@@H](C(=O)N[C@H](CO)[C@@H](C)O)NC1=O` [Octreotide], the 50% cytotoxic concentration (CC50) at 24 h was more than 50 µM.
In turn, `CCCCCCCCOC(C)=O` [Octyl acetate] registered a cytotoxic concentration (CC50) at 24 h of more than 90 µM.
With `CCCCCCCCO[C@@H]1O[C@H](CO)[C@@H](O)[C@H](O)[C@H]1O` [Octyl beta-D-glucopyranoside], the cytotoxic concentration (CC50) at 24 h was more than 90 µM.
Still for that read-out and setting: then `CCCCCCCCCCOC(=O)c1ccccc1C(=O)OCCCCCCCC` [Octyl decyl phthalate], with more than 90 µM; and `CCCCCCCCOC(=O)c1cc(O)c(O)c(O)c1` [Octyl gallate], with 2.6 µM.
The same measure, in the same setting: as for `C=CC(=O)OCCCCCCCC` [Octyl prop-2-enoate], the figure is more than 90 µM; as for `CCCCC(CC)CN1C(=O)[C@@H]2[C@H](C1=O)[C@@H]1C=C[C@H]2C1` (some centres unmarked) [Octylbicycloheptenedicarboximide], 53.7 µM.
Regarding `CC1COc2c(N3CCN(C)CC3)c(F)cc3c(=O)c(C(=O)O)cn1c23` (centres unmarked) [Ofloxacin], the cytotoxic concentration (CC50) at 24 h is more than 50 µM.
`O=C(O)CN(CC(=O)O)Cc1cc2c(cc1O)Oc1cc(O)c(CN(CC(=O)O)CC(=O)O)cc1C21OC(=O)c2ccccc21` [Oftasceine]: the CC50 at 24 h was more than 50 µM.
On the same count and under the same terms, as for `Cc1cc2c(s1)Nc1ccccc1N=C2N1CCN(C)CC1` [Olanzapine], the figure is 15.7 µM; as for `Cc1c(C(=O)NCCO)[n+]([O-])c2ccccc2[n+]1[O-]` [Olaquindox], more than 50 µM.
Still for that read-out and setting: as for `CO[C@H]1C[C@H](O[C@H]2[C@H](C)[C@@H](O[C@@H]3O[C@H](C)C[C@H](N(C)C)[C@H]3O)[C@@H](C)C[C@@]3(CO3)C(=O)[C@H](C)[C@@H](O)[C@@H](C)[C@@H](C)OC(=O)[C@@H]2C)O[C@@H](C)[C@@H]1O` [Oleandomycin phosphate], the figure is more than 20 µM; as for `CCCCCCCC/C=C\CCCCCCCC(=O)O` [Oleic acid], more than 90 µM.
`C/C(=N\Cc1ccccc1)c1ccccc1O` [Oletimol] had a CC50 at 24 h of more than 50 µM.
Take `CCCc1nc(C(C)(C)O)c(C(=O)OCc2oc(=O)oc2C)n1Cc1ccc(-c2ccccc2-c2nnn[nH]2)cc1` [Olmesartan medoxomil]: the half-maximal cytotoxic concentration (CC50) at 24 h was more than 50 µM.
Compound `CN(C)CC/C=C1/c2ccccc2COc2ccc(CC(=O)O)cc21` [Olopatadine hydrochloride] registered a CC50 at 24 h of more than 50 µM.
Still for that read-out and setting: then `Cc1[nH]c(=O)c(C#N)cc1-c1ccc2nccn2c1` [Olprinone hydrochloride], with more than 50 µM; and `O=C(O)c1cc(/N=N/c2ccc(O)c(C(=O)O)c2)ccc1O` [Olsalazine sodium], with more than 50 µM.
For `CCCCCCCC/C=C\CCCCCCCC(=O)NCc1ccc(O)c(OC)c1` [Olvanil], half-maximal cytotoxicity (CC50 at 24 h) was put at 8.65 µM.
`COc1ccc2[nH]c([S+]([O-])Cc3ncc(C)c(OC)c3C)nc2c1` (centres unmarked) [Omeprazole] came in with a CC50 at 24 h of more than 90 µM.
Same read-out and setting: then `COc1ccc(/C=N/NC(=O)c2ccncc2)c(C(=O)O)c1OC` [Opiniazide], with more than 50 µM.
For the compound `C=CC(=C)CC/C=C(\C)CC/C=C(/C)C=O` [Orange terpenes], the CC50 at 24 h amounted to 42.9 µM.
The same measure, in the same setting: as for `C[C@@H]1CN(c2c(F)c(F)c3c(=O)c(C(=O)O)cn(C4CC4)c3c2F)C[C@H](C)N1` [Orbifloxacin], the figure is more than 50 µM; as for `CC(C)NCC(O)c1cc(O)cc(O)c1` (centres unmarked) [Orciprenaline sulfate], more than 50 µM.

Staying with this data set, now noted: rat, gh3-tre-luc cells, AC50 (uM) modified / 1000, Tox21_110001=Tox21_113540; viability, 1 nM T3 present, 24 h.
For the compound `Oc1ccc2c3c1O[C@H]1[C@@H](O)C=C[C@H]4[C@@H](C2)NCC[C@@]341` [Normorphine], the CC50 at 24 h was more than 50 µM.

The same data set, now with this note: rat, gh3-tre-luc cells, AC50 (uM) modified / 1000, Tox21_110001=Tox21_202349; viability, 1 nM T3 present, 24 h.
Regarding `CCCCCc1cc(O)cc(O)c1` [Olivetol], the CC50 at 24 h is 78.4 µM.

Staying with this data set, now noted: rat, gh3-tre-luc cells, AC50 (uM) modified / 1000, Tox21_110001=Tox21_300968; viability, 1 nM T3 present, 24 h.
`CNC(=O)CSP(=O)(OC)OC` [Omethoate] yielded a 50% cytotoxic concentration (CC50) at 24 h of more than 90 µM.

Staying with this data set, now noted: rat, gh3-tre-luc cells, AC50 (uM) modified / 1000, Tox21_110001=Tox21_302242; viability, 1 nM T3 present, 24 h.
As to `CCCCCCCCP(=O)(O)O` [Octylphosphonic acid], the CC50 at 24 h is more than 90 µM.

Still in this data set, the particulars now being: rat, gh3-tre-luc cells, AC50 (uM) modified / 1000, Tox21_110001=Tox21_303332; viability, 1 nM T3 present, 24 h.
`CCCCCc1cc(O)cc(O)c1` [Olivetol] gave a half-maximal cytotoxic concentration (CC50) at 24 h of 75.4 µM.
